{"source": "patent US20260256792A1", "about": "“TREATMENT OF CHRONIC SPONTANEOUS URTICARIA BY ADMINISTERING (R)-2-[3-[4-AMINO-3-(2-FLUORO-4-PHENOXY-PHENYL)PYRAZOLO[3,4-D]PYRIMIDIN-1-YL]PIPERIDINE-1-CARBONYL]-4-METHYL-4-[4-(OXETAN-3-YL)PIPERAZIN-1-YL]PENT-2-ENENITRILE” (priority 2023, published 2026)", "test_system": "moderate-to-severe chronic spontaneous urticaria (CSU)", "experiment": "Phase 2 CSU study: itch severity score over 7 days (ISS7)", "type": "in vivo, human", "excerpt": "The study comprises a 12 week, randomized, double-blind, placebo-controlled, multi-center, dose-ranging efficacy and safety phase, followed by a 40 week open label extension (OLE) phase (see FIG. 1). The study consists of three phases and an optional OLE phase. […] Clinically, CSU is characterized by the spontaneous and recurrent appearance of pruritic hives. The proposed primary endpoints were the UAS7 at Week 12 in EU and EU reference countries and the ISS7 in the US. Regardless of where a participant was from, all assessments were the same. The UAS7 score is a composite score containing both the HSS7 and the ISS7. This allowed a global assessment of the two key components of urticaria: hives and itch. […] The UAS is a validated PRO measure. […] The daily UAS scores range from 0 to 6 point/day. […] Patients were to complete the UAS using the e-diary. […] The following secondary endpoints were to be analyzed using the same approach as for the primary endpoint: • Change from baseline in UAS7 at Week 4 • Change from baseline in UAS7 at Week 12 (for US and US reference countries) • Change from baseline in ISS7 at Week 12 (except US and US reference countries) • Change from baseline in HSS7 at Week 12", "key": {"[1]": {"settings": "Week 10, 400 mg QPM, Omalizumab-Naïve"}, "[2]": {"settings": "Week 10, 400 mg QPM, Prior Omalizumab Use"}, "[3]": {"settings": "Week 10, 400 mg TID, Omalizumab-Naïve"}, "[4]": {"settings": "Week 10, 400 mg TID, Prior Omalizumab Use"}, "[5]": {"settings": "Week 11, 400 mg BID, Omalizumab-Naïve"}, "[6]": {"settings": "Week 11, 400 mg BID, Prior Omalizumab Use"}, "[7]": {"settings": "Week 11, 400 mg QPM, Omalizumab-Naïve"}, "[8]": {"settings": "Week 11, 400 mg QPM, Prior Omalizumab Use"}, "[9]": {"settings": "Week 11, 400 mg TID, Omalizumab-Naïve"}, "[10]": {"settings": "Week 11, 400 mg TID, Prior Omalizumab Use"}, "[11]": {"settings": "Week 12, 400 mg BID, Omalizumab-Naïve"}, "[12]": {"settings": "Week 12, 400 mg BID, Prior Omalizumab Use"}, "[13]": {"settings": "Week 12, 400 mg QPM, Omalizumab-Naïve"}, "[14]": {"settings": "Week 12, 400 mg QPM, Prior Omalizumab Use"}, "[15]": {"settings": "Week 12, 400 mg TID, Omalizumab-Naïve"}, "[16]": {"settings": "Week 12, 400 mg TID, Prior Omalizumab Use"}}, "data": [{"smiles": "CC(C)(C=C(C#N)C(=O)N1CCC[C@@H](n2nc(-c3ccc(Oc4ccccc4)cc3F)c3c(N)ncnc32)C1)N1CCN(C2COC2)CC1", "note": "[rilzabrutinib, (R)-2-[3-[4-amino-3-(2-fluoro-4-phenoxy-phenyl)pyrazolo[3,4-d]pyrimidin-1-yl]piperidine-1-carbonyl]-4-methyl-4-[4-(oxetan-3-yl)piperazin-1-yl]pent-2-enenitrile]", "values": [{"measurement": "ISS7 Change from baseline Median", "setting": "[1]", "result": "−6.00"}, {"measurement": "ISS7 Mean (SD)", "setting": "[1]", "result": "10.43 (5.30)"}, {"measurement": "ISS7 Median", "setting": "[1]", "result": 9.50}, {"measurement": "ISS7 Percent change from baseline Mean (SD)", "setting": "[1]", "result": "−37.25 (29.62) %"}, {"measurement": "ISS7 Percent change from baseline Median", "setting": "[1]", "result": "−39.23", "unit": "%"}, {"measurement": "ISS7 Change from baseline Mean (SD)", "setting": "[2]", "result": "−13.00 (NC)"}, {"measurement": "ISS7 Change from baseline Median", "setting": "[2]", "result": "−13.00"}, {"measurement": "ISS7 Mean (SD)", "setting": "[2]", "result": "8.00 (NC)"}, {"measurement": "ISS7 Median", "setting": "[2]", "result": 8.00}, {"measurement": "ISS7 Percent change from baseline Mean (SD)", "setting": "[2]", "result": "−61.90 (NC) %"}, {"measurement": "ISS7 Percent change from baseline Median", "setting": "[2]", "result": "−61.90", "unit": "%"}, {"measurement": "ISS7 Change from baseline Mean (SD)", "setting": "[3]", "result": "−9.55 (5.37)"}, {"measurement": "ISS7 Change from baseline Median", "setting": "[3]", "result": "−10.00"}, {"measurement": "ISS7 Mean (SD)", "setting": "[3]", "result": "6.75 (5.25)"}, {"measurement": "ISS7 Median", "setting": "[3]", "result": 7.00}, {"measurement": "ISS7 Percent change from baseline Mean (SD)", "setting": "[3]", "result": "−58.27 (30.87) %"}, {"measurement": "ISS7 Percent change from baseline Median", "setting": "[3]", "result": "−57.19", "unit": "%"}, {"measurement": "ISS7 Change from baseline Mean (SD)", "setting": "[4]", "result": "−12.17 (8.26)"}, {"measurement": "ISS7 Change from baseline Median", "setting": "[4]", "result": "−13.00"}, {"measurement": "ISS7 Mean (SD)", "setting": "[4]", "result": "4.83 (6.85)"}, {"measurement": "ISS7 Median", "setting": "[4]", "result": 3.00}, {"measurement": "ISS7 Percent change from baseline Mean (SD)", "setting": "[4]", "result": "−68.55 (36.38) %"}, {"measurement": "ISS7 Percent change from baseline Median", "setting": "[4]", "result": "−79.76", "unit": "%"}, {"measurement": "ISS7 Change from baseline Mean (SD)", "setting": "[5]", "result": "−7.51 (6.18)"}, {"measurement": "ISS7 Change from baseline Median", "setting": "[5]", "result": "−8.00"}, {"measurement": "ISS7 Mean (SD)", "setting": "[5]", "result": "7.93 (6.94)"}, {"measurement": "ISS7 Median", "setting": "[5]", "result": 7.00}, {"measurement": "ISS7 Percent change from baseline Mean (SD)", "setting": "[5]", "result": "−49.75 (40.18) %"}, {"measurement": "ISS7 Percent change from baseline Median", "setting": "[5]", "result": "−57.14", "unit": "%"}, {"measurement": "ISS7 Change from baseline Mean (SD)", "setting": "[6]", "result": "−10.43 (9.36)"}, {"measurement": "ISS7 Change from baseline Median", "setting": "[6]", "result": "−13.00"}, {"measurement": "ISS7 Mean (SD)", "setting": "[6]", "result": "6.77 (8.14)"}, {"measurement": "ISS7 Median", "setting": "[6]", "result": 2.00}, {"measurement": "ISS7 Percent change from baseline Mean (SD)", "setting": "[6]", "result": "−58.05 (49.51) %"}, {"measurement": "ISS7 Percent change from baseline Median", "setting": "[6]", "result": "−86.67", "unit": "%"}, {"measurement": "ISS7 Change from baseline Mean (SD)", "setting": "[7]", "result": "−6.07 (4.83)"}, {"measurement": "ISS7 Change from baseline Median", "setting": "[7]", "result": "−6.00"}, {"measurement": "ISS7 Mean (SD)", "setting": "[7]", "result": "11.03 (5.55)"}, {"measurement": "ISS7 Percent change from baseline Mean (SD)", "setting": "[7]", "result": "−36.12 (28.12) %"}, {"measurement": "ISS7 Percent change from baseline Median", "setting": "[7]", "result": "−30.00", "unit": "%"}, {"measurement": "ISS7 Change from baseline Mean (SD)", "setting": "[8]", "result": "−12.00 (NC)"}, {"measurement": "ISS7 Change from baseline Median", "setting": "[8]", "result": "−12.00"}, {"measurement": "ISS7 Mean (SD)", "setting": "[8]", "result": "9.00 (NC)"}, {"measurement": "ISS7 Median", "setting": "[8]", "result": 9.00}, {"measurement": "ISS7 Percent change from baseline Mean (SD)", "setting": "[8]", "result": "−57.14 (NC) %"}, {"measurement": "ISS7 Percent change from baseline Median", "setting": "[8]", "result": "−57.14", "unit": "%"}, {"measurement": "ISS7 Change from baseline Mean (SD)", "setting": "[9]", "result": "−9.23 (5.92)"}, {"measurement": "ISS7 Change from baseline Median", "setting": "[9]", "result": "−9.00"}, {"measurement": "ISS7 Mean (SD)", "setting": "[9]", "result": "6.99 (5.53)"}, {"measurement": "ISS7 Median", "setting": "[9]", "result": 7.00}, {"measurement": "ISS7 Percent change from baseline Mean (SD)", "setting": "[9]", "result": "−56.08 (33.60) %"}, {"measurement": "ISS7 Percent change from baseline Median", "setting": "[9]", "result": "−60.00", "unit": "%"}, {"measurement": "ISS7 Change from baseline Mean (SD)", "setting": "[10]", "result": "−12.58 (8.36)"}, {"measurement": "ISS7 Change from baseline Median", "setting": "[10]", "result": "−13.75"}, {"measurement": "ISS7 Mean (SD)", "setting": "[10]", "result": "4.42 (6.99)"}, {"measurement": "ISS7 Median", "setting": "[10]", "result": 1.75}, {"measurement": "ISS7 Percent change from baseline Mean (SD)", "setting": "[10]", "result": "−71.13 (37.09) %"}, {"measurement": "ISS7 Percent change from baseline Median", "setting": "[10]", "result": "−87.50", "unit": "%"}, {"measurement": "ISS7 Change from baseline Mean (SD)", "setting": "[11]", "result": "−7.40 (6.12)"}, {"measurement": "ISS7 Change from baseline Median", "setting": "[11]", "result": "−7.00"}, {"measurement": "ISS7 Mean (SD)", "setting": "[11]", "result": "8.09 (6.95)"}, {"measurement": "ISS7 Median", "setting": "[11]", "result": 7.00}, {"measurement": "ISS7 Percent change from baseline Mean (SD)", "setting": "[11]", "result": "−49.06 (38.85) %"}, {"measurement": "ISS7 Percent change from baseline Median", "setting": "[11]", "result": "−45.00", "unit": "%"}, {"measurement": "ISS7 Change from baseline Mean (SD)", "setting": "[12]", "result": "−13.50 (9.33)"}, {"measurement": "ISS7 Change from baseline Median", "setting": "[12]", "result": "−16.50"}, {"measurement": "ISS7 Mean (SD)", "setting": "[12]", "result": "4.50 (9.00)"}, {"measurement": "ISS7 Median", "setting": "[12]", "result": 0.00}, {"measurement": "ISS7 Percent change from baseline Mean (SD)", "setting": "[12]", "result": "−75.00 (50.00) %"}, {"measurement": "ISS7 Percent change from baseline Median", "setting": "[12]", "result": "−100.00", "unit": "%"}, {"measurement": "ISS7 Change from baseline Mean (SD)", "setting": "[13]", "result": "−5.69 (4.72)"}, {"measurement": "ISS7 Change from baseline Median", "setting": "[13]", "result": "−5.33"}, {"measurement": "ISS7 Median", "setting": "[13]", "result": 11.60}, {"measurement": "ISS7 Percent change from baseline Mean (SD)", "setting": "[13]", "result": "−33.81 (26.94) %"}, {"measurement": "ISS7 Percent change from baseline Median", "setting": "[13]", "result": "−32.64", "unit": "%"}, {"measurement": "ISS7 Change from baseline Mean (SD)", "setting": "[14]", "result": "−14.00 (NC)"}, {"measurement": "ISS7 Change from baseline Median", "setting": "[14]", "result": "−14.00"}, {"measurement": "ISS7 Mean (SD)", "setting": "[14]", "result": "7.00 (NC)"}, {"measurement": "ISS7 Median", "setting": "[14]", "result": 7.00}, {"measurement": "ISS7 Change from baseline Mean (SD)", "setting": "[15]", "result": "−10.27 (6.02)"}, {"measurement": "ISS7 Change from baseline Median", "setting": "[15]", "result": "−10.33"}, {"measurement": "ISS7 Mean (SD)", "setting": "[15]", "result": "5.77 (5.26)"}, {"measurement": "ISS7 Median", "setting": "[15]", "result": 7.00}, {"measurement": "ISS7 Percent change from baseline Mean (SD)", "setting": "[15]", "result": "−62.66 (31.72) %"}, {"measurement": "ISS7 Percent change from baseline Median", "setting": "[15]", "result": "−57.19", "unit": "%"}, {"measurement": "ISS7 Change from baseline Mean (SD)", "setting": "[16]", "result": "−13.00 (9.27)"}, {"measurement": "ISS7 Change from baseline Median", "setting": "[16]", "result": "−17.00"}, {"measurement": "ISS7 Mean (SD)", "setting": "[16]", "result": "4.60 (7.80)"}, {"measurement": "ISS7 Median", "setting": "[16]", "result": 0.00}, {"measurement": "ISS7 Percent change from baseline Mean (SD)", "setting": "[16]", "result": "−70.36 (41.41) %"}, {"measurement": "ISS7 Percent change from baseline Median", "setting": "[16]", "result": "−100.00", "unit": "%"}]}]}
